This is an account of results in patent US12590118B2, “Salt and crystal form of steroid derivative regulator” (Shanghai Hansoh Biomedical Co., Ltd., priority 2019, dated 2026).

SMILES strings stand for the structures.

One experiment deals with ICR mice. Nature of the experiment: Forced swimming model in mice. In kind it is in vivo. The method, then:
The antidepressant effect of the compound was evaluated by the forced swimming model in mice.
Compounds of Examples 1 to 3, Example 9, Example 40, Example 41, Examples 48 to 52, Example 90 and Example 98 of the present invention, prepared by the applicant.
Male ICR mice (25-35 g) were adapted in the experiment environment for 3 days before the forced swimming test.
According to the experiment design, the mice were randomly grouped on the day before the experiment according to body weight, with 12 mice in each group. Before the test, the compounds of each example were administered intragastrically according to the Tmax thereof in the brain in mice pharmacokinetic experiment.
Respectively: • 1) Model group (0.5% CMC-Na-1% Tween 80 solution, p.o., 10 mL/kg); • 2) Compounds of Examples 1 to 3, Example 40, Example 41, Examples 48 to 51, Example 90 and Example 98 (10 mg/kg, p.o., 10 mL/kg); Example 9 and Example 52 (5 mg/kg, p.o., 5 mL/kg).
When being administered, the compounds of each example were suspended in 0.5% CMC-Na+1% Tween 80 solution to the desired concentration.
0.5-1 hour after administration, ICR mice were placed in a forced swimming device (transparent glass drum (water depth 18 cm, water temperature 25-26° C.), one mouse per tank) and forced to swim for 6 minutes. The forced swimming device recorded the floating time of the ICR mice during the entire 6 minutes, and the data of the latter four minutes were used for data analysis. The mice were taken out immediately after the swimming experiment, wiped dry and put back in their original cages.
Note: The criterion for determining the immobility time is that the mouse stops struggling in water and floats, and there are only slight limb movements to keep the head floating on the water.
3.4 Data Analysis Floating time percentage=100*floating time/240 s.

The next experiment concerns the target GABA-A receptor. Nature of the experiment: 35S-TBPS binding assay (GABAA receptor binding ability assay). More on the design: species or system Sprague-Dawley rat. The note with it: rat cerebral cortex cell membrane, 5 μM GABA, 2 nM 35S-TBPS; read-out: IC50 on inhibiting the TBPS binding activity, 35S-TBPS bindng assay. As to the method: 1. The cerebral cortex of male Sprague-Dawley rat was isolated.
2. A pre-chilled 0.32 M sucrose solution (one tablet of protease inhibitor was added per 100 mL) was added to the cerebral cortex (the volume of sucrose solution was 10 times the volume of the cerebral cortex). The mixture was crushed with a 50 mL glass tissue homogenizer in batches and mixed well.
3. The mixture was centrifuged at 1,500 g, 4° C. for 10 minutes, and the supernatant was collected.
4. The mixture was centrifuged at 20,000 g, 4° C. for 30 minutes, and the supernatant was discarded.
5. The precipitate was resuspended with the pre-chilled phosphate buffer saline (PBS) (one tablet of protease inhibitor was added per 100 mL). An average of 4 mL of PBS was added per rat, and the mixture was mixed well with a glass tissue homogenizer.
6. The mixture was centrifuged at 10,000 g, 4° C. for 10 minutes, and the supernatant was discarded.
7. Steps 5 and 6 were repeated three times.
8. Finally, the precipitate was resuspended with 4 volumes of PBS. The resulting solution was dispensed, frozen in liquid nitrogen, and stored at −80° C.
9. The protein concentration was measured by the bicinchoninic acid (BCA) method.
1. 230 μL of PBS was added to each well of a well plate with 1.1 mL volume.
2. 60 μL of the cerebral cortex cell membrane (5 μg/μL) solution was added to each well, and the mixture was mixed well.
3. The test compound (3 μL per well) was added, and the plate was incubated at 25° C. for 5 minutes. The DMSO concentration was 1%. The initial compound concentration was […], and a
3-fold dilution in gradient was carried out to obtain a total of 8 gradients and 2 replicates. 1% DMSO was used as a negative control, and 10 μM P026-2 was used as a positive control.
4. GABA was added at a final concentration of 5 μM, and incubated at 25° C. for 5 minutes. 1 mM GABA solution was formulated, and 1.5 μL of the solution was added to each well.
5. 35S-TBPS was added at a final concentration of 2 nM. The concentration of isotope mother solution was 9.7 μM. After dilution with PBS for 100 times, 6 μL of the diluted isotope solution was added to each well.
6. The plate was incubated at 4° C. for 20 hours.
7. The FilterMate GF/C plate was pre-treated with 0.5% PEI, and incubated at 4° C. for 1 hour.
8. The FilterMate GF/C plate was washed with Universal Harvester twice, 50 mL PBS each time.
9. The reaction solution was transferred to the GF/C plate, and each well was washed 4 times with 900 μL of PBS.
10. The washed GF/C plate was placed at 55° C. and dried for 10 minutes.
11. 40 μL of scintillation solution was added to each well, and the CPM value was read with TopCount.
In the experiment, the CPM (counts per minute) value was read with TopCount. According to the readings of the High control (DMSO) and the Low control (10 μM of the positive compound) experimental groups, the % inhibition was calculated based on the following formula: % Inhibition=100×(CPMHigh control−CPMsample)/(CPMHigh control−CPMLow control)
The IC50 of the compound was calculated according to the following 4-parameter nonlinear logic formula: Y=Bottom+(Top−Bottom)/(1+10^((Log IC50−X)*HillSlope)),
wherein: • X represents the log of compound concentration, • Y represents the % Inhibition.
The effect of the compound of the present invention on the TBPS binding activity was determined by the above test, and the measured IC50 values are shown in Table 5.

For the compound `C[C@@]1(O)CC[C@H]2[C@H](CC[C@@H]3[C@@H]2CC[C@@]2(C)[C@H]3[C@H](C3CC3)C[C@@H]2C(=O)Cn2ccc(C#N)n2)C1` [Example 49, 1-(2-((3R,5R,8R,9R,10S,13S,14S,15S,17S)-15-Cyclopropyl-3-hydroxy-3,13-dimethylhexadecahydro-1H-cyclopenta[a]phenanthren-17-yl)-2-oxoethyl)-1H-pyrazole-3-carbonitrile], the “Mean (immobility, %)” value with ICR mice (dose 10 mpk p.o., floating time/240 s) worked out at 35.74%. Moreover, the “Mean (immobility, s)” value in the experiment on ICR mice (dose 10 mpk p.o., latter four minutes of 6 min swim) came out at 85.77 s. Besides, in the experiment on ICR mice (forced swimming, ICR mice), the “immobility time during the latter four minutes compared with that of the model group” value is “very significantly different”. On to `Cc1nnnn1CC(=O)[C@H]1[C@H]2C[C@H]2[C@H]2[C@@H]3CC[C@@H]4C[C@](C)(O)CC[C@@H]4[C@H]3CC[C@@]21C` [Example 71, 1-((2R,4aS,4bR,6aS,7S,7aS,8aR,8bR,8cR,10aR)-2-Hydroxy-2,6a-dimethyloctadecahydrocyclopropa[4,5]cyclopenta[1,2-a]phenanthren-7-yl)-2-(5-methyl-1H-tetrazol-1-yl)ethan-1-one], for which, at GABA-A receptor, the 50% inhibitory concentration (IC50) came out at 0.0114 µM. With `C[C@@]1(O)CC[C@H]2[C@H](CC[C@@H]3[C@@H]2CC[C@@]2(C)[C@H]3[C@@H]3C[C@@H]3[C@@H]2C(=O)Cn2cc([N+](=O)[O-])cn2)C1` [Example 73, 1-((2R,4aS,4bR,6aS,7S,7aS,8aR,8bR,8cR,10aR)-2-Hydroxy-2,6a-dimethyloctadecahydrocyclopropa[4,5]cyclopenta[1,2-a]phenanthren-7-yl)-2-(4-nitro-1H-pyrazol-1-yl)ethan-1-one], at GABA-A receptor, the half-inhibitory concentration (IC50) was 0.0102 µM. Regarding `C[C@@]1(O)CC[C@H]2[C@H](CC[C@@H]3[C@@H]2CC[C@@]2(C)[C@H]3[C@@H]3C[C@@H]3[C@@H]2C(=O)Cn2nc(C#N)cc2C#N)C1` [Example 84, 1-(2-((2R,4aS,4bR,6aS,7S,7aS,8aR,8bR,8cR,10aR)-2-Hydroxy-2,6a-dimethyloctadecahydrocyclopropa[4,5]cyclopenta[1,2-a]phenanthren-7-yl)-2-oxoethyl)-1H-pyrazole-3,5-dicarbonitrile], the half-inhibitory concentration (IC50) at GABA-A receptor was 0.0061 µM. As to `C[C@@]1(O)CC[C@H]2[C@H](CC[C@@H]3[C@@H]2CC[C@@]2(C)[C@H]3[C@@H]3C[C@@H]3[C@@H]2C(=O)Cn2cc(-c3ncco3)cn2)C1` [Example 85, 1-((2R,4aS,4bR,6aS,7S,7aS,8aR,8bR,8cR,10aR)-2-Hydroxy-2,6a-dimethyloctadecahydrocyclopropa[4,5]cyclopenta[1,2-a]phenanthren-7-yl)-2-(4-(oxazol-2-yl)-1H-pyrazol-1-yl)ethan-1-one], on GABA-A receptor, the IC50 came out at 0.0158 µM. Still for that read-out and setting: the same measure for `CC[C@@H]1C[C@H](C(=O)Cn2ccc(C(F)(F)F)n2)[C@@]2(C)CC[C@H]3[C@@H](CC[C@@H]4C[C@](C)(O)CC[C@@H]43)[C@H]12` [Example 91, 1-((3R,5R,8R,9R,10S,13S,14S,15R,17S)-15-Ethyl-3-hydroxy-3,13-dimethylhexadecahydro-1H-cyclopenta[a]phenanthren-17-yl)-2-(3-(trifluoromethyl)-1H-pyrazol-1-yl)ethan-1-one]: 0.0252 µM; for `CC[C@@H]1C[C@H](C(=O)Cn2nnc(C)n2)[C@@]2(C)CC[C@H]3[C@@H](CC[C@@H]4C[C@](C)(O)CC[C@@H]43)[C@H]12` [Example 92, 1-((3R,5R,8R,9R,10S,13S,14S,15R,17S)-15-Ethyl-3-hydroxy-3,13-dimethylhexadecahydro-1H-cyclopenta[a]phenanthren-17-yl)-2-(5-methyl-2H-tetrazol-2-yl)ethan-1-one]: 0.027 µM; for `CC[C@@H]1C[C@H](C(=O)Cn2nccn2)[C@@]2(C)CC[C@H]3[C@@H](CC[C@@H]4C[C@](C)(O)CC[C@@H]43)[C@H]12` [Example 94, 1-((3R,5R,8R,9R,10S,13S,14S,15R,17S)-15-Ethyl-3-hydroxy-3,13-dimethylhexadecahydro-1H-cyclopenta[a]phenanthren-17-yl)-2-(2H-1,2,3-triazol-2-yl)ethan-1-one]: 0.0239 µM. For `CC[C@@H]1C[C@H](C(=O)Cn2nc(C#N)cc2C#N)[C@@]2(C)CC[C@H]3[C@@H](CC[C@@H]4C[C@](C)(O)CC[C@@H]43)[C@H]12` [Example 95, 1-(2-((3R,5R,8R,9R,10S,13S,14S,15R,17S)-15-Ethyl-3-hydroxy-3,13-dimethylhexadecahydro-1H-cyclopenta[a]phenanthren-17-yl)-2-oxoethyl)-1H-pyrazole-3,5-dicarbonitrile], on GABA-A receptor, the IC50 was 0.0162 µM. On the same count and under the same terms, the same measure for `C[C@@]1(O)CC[C@H]2[C@H](CC[C@@H]3[C@@H]2CC[C@@]2(C)[C@H]3[C@H](C3CC3)C[C@@H]2C(=O)Cn2ccc(C(F)(F)F)n2)C1` [Example 97, 1-((3R,5R,8R,9R,10S,13S,14S,15S,17S)-15-Cyclopropyl-3-hydroxy-3,13-dimethylhexadecahydro-1H-cyclopenta[a]phenanthren-17-yl)-2-(3-(trifluoromethyl)-1H-pyrazol-1-yl)ethan-1-one]: 0.0186 µM; for `C[C@@]1(O)CC[C@H]2[C@H](CC[C@@H]3[C@@H]2CC[C@@]2(C)[C@H]3[C@H](C3CC3)C[C@@H]2C(=O)Cn2cc(C#N)c(Cl)n2)C1` [Example 99, 3-Chloro-1-(2-((3R,5R,8R,9R,10S,13S,14S,15S,17S)-15-cyclopropyl-3-hydroxy-3,13-dimethylhexadecahydro-1H-cyclopenta[a]phenanthren-17-yl)-2-oxoethyl)-1H-pyrazole-4-carbonitrile]: 0.0244 µM; for `CC[C@@H]1C[C@H](C(=O)Cn2ncnn2)[C@@]2(C)CC[C@H]3[C@@H](CC[C@@H]4C[C@](C)(O)CC[C@@H]43)[C@H]12` [Example 100, 1-((3R,5R,8R,9R,10S,13S,14S,15R,17S)-15-Ethyl-3-hydroxy-3,13-dimethylhexadecahydro-1H-cyclopenta[a]phenanthren-17-yl)-2-(2H-tetrazol-2-yl)ethan-1-one]: 0.0256 µM.

Usually IC50 stands for the concentration needed to halve the response being measured.
